Columns and labels:
[1] = supplementation; Sounders 2016; cited from earlier work
[2] = Titration of DPBS and DMEM/F12 + 10% FBS with different carbonate sources (pH effect); assay type: physicochemical; conditions: for Amount in ml that was needed to reach pH 8: 73.5 mM carbonate suspension or solution
Source text: Two commercial media, Dulbecco's phosphate-buffered saline (DPBS) and Gibco Dulbecco's Modified Eagle Medium: Nutrient Mixture F-12 (DMEM/F12), with 10% Fetal Bovine Serum (FBS) were used to evaluate the pH effect of different sources of calcium carbonate. DPBS is Dulbecco's Phosphate Buffered Saline, generally serves as an isotonic saline solution or buffer for washing cells and tissues and intends to provide a buffer system for maintaining cell culture media in the physiological range of 7.2-7.6.
DMEM/F12 is a widely used basal medium for supporting the growth of many different mammalian cells. DMEM/F12 medium+10% FBS was used to maximally mimic the environment of the body fluids.
Three sources of calcium carbonate were used ACC, Sodium bicarbonate (SBC) and Crystalline Calcium Carbonate (CCC).
The final composition comprised 73.53 mM of CaCO3 in the water suspension.
The addition was done until a pH plateau was accomplished or the level of the solution reached the end of the capacity of the used container (˜130 ml).

[3] = oral administration of 300 mg/kg; Zajac 2009; cited from earlier work
[4] = human performance; Requena 2005; cited from earlier work
[5] = chronic ingestion, 300 to 500 mg/kg; Lopes-Silva; cited from earlier work
[6] = tested on: athletes; conditions: about 20-35 g/day; cited from earlier work

NCCC(=O)O [β-alanine]
effect on exercise [1]: significant overall ergogenic effect

O=C([O-])[O-].[Ca+2] [CCC, Crystalline Calcium Carbonate]
Final pH ([2]; added to DMEM/F12 + 10% FBS): 7.90
Amount in ml that was needed to reach pH 8 ([2]; added to DMEM/F12 + 10% FBS): 80 ml
Final pH ([2]; added to DPBS): 8
Amount in ml that was needed to reach pH 8 ([2]; added to DPBS): 65 ml

O=C([O-])O.[Na+] [SBC, Sodium bicarbonate]
capability to reach higher pH levels ([2]; SBC compared with CCC): not significantly different
Final pH ([2]; added to DMEM/F12 + 10% FBS): 8.3
Amount in ml that was needed to reach pH 8 ([2]; added to DMEM/F12 + 10% FBS): 77 ml
Final pH ([2]; added to DPBS): 8.30
Amount in ml that was needed to reach pH 8 ([2]; added to DPBS): 76.4 ml
training intensity and swimming performance [3]: can increase training intensity and swimming performance
doses for which a significant effect was shown [4]: above 300 mg/kg
Wingate test peak or mean power [5]: chronic ingestion of NaHCO3 did
reported adverse effects [6]: stomach aches and discomfort, nausea, and vomiting
